# Where two headings read alike, the source gives them in different places.
# What was measured:
# [1] = test system: oak species (QUESS); assay: Test 13 field trial, postemergence, brush weeds; type: in vivo, Quercus L. spp.; details: 56 DAA; g a.i./ha: Cpd 2 250; Fosamine-ammonium 6700
# Source text: (§1) Plots were established in non-crop land and were 6.1 m long by 3.0 m wide. […] Treatments were applied postemergence to the brush weeds using a backpack sprayer delivering a spray volume of 468 L/ha using a pressure of 241 kPa. […] All treatments also included a surfactant. […] Results are the means of the three replicates.
# [2] = test system: mixed hardwoods (MXDSP); assay: Test 13 field trial, postemergence, brush weeds; type: in vivo, Nyssa sylvatica, Acer rubrum, Liquidambar styraciflua; details: 56 DAA; g a.i./ha: Cpd 2 250; Fosamine-ammonium 6700
# Source text: as §1
# [3] = test system: wheat (TRZAW); set-up: species or system Triticum aestivum; details: in vivo
# Experimental: (§2) A greenhouse test was conducted to evaluate the effects of Compounds 1 and 2, applied preemergence, on the plant species corn (ZEAMD, Zea mays ssp. indentata) and wheat (TRZAW, Triticum aestivum L.) grown from seed treated with and without naphthalic anhydride. Naphthalic anhydride was applied at a rate of 1% wt/wt basis to corn and wheat seed. Seed treatments were made as follows for evaluations of the chemical materials employed. One-hundred grams of each crop seed were placed in a separate self-closing plastic bag to which 1 gram of the chemical material was added. The bag containing the seed was tightly closed and gently agitated thereby allowing the seed to slowly come in contact with the chemical material to achieve maximal distribution on the seed surface, arriving at a uniform coverage. Treatment rate comparisons between spray application and seed treatment materials were made on the calculated area rate of naphthalic anhydride in grams active ingredient per hectare for a given crop. These rates were calculated based on a typical seeding rate per hectare used for agronomic production of a given crop. For wheat, a typical average seeding rate is 200 wheat seeds per square meter which weigh 6.8 g. For corn, a typical average seeding rate is 7.5 corn seeds per square meter which weigh 2.0 g. […] Corn treatments were replicated three times. Wheat treatments were replicated two times. […]
# [4] = test system: corn (ZEAMD); set-up: species or system Zea mays ssp. indentata; details: in vivo
# Experimental: as §2
# [5] = test system: common chickweed (STEME); assay: Test 9 field trial, emerged weeds before corn planting; type: in vivo, Stellaria media; details: g a.i./ha: Cpd 2 100, Glyphosate 1540, Paraquat 1150
# Experimental: (§3) Corn seeds (hybrid ‘Pioneer 34M91 RR’) were planted in mid spring season, about 3.8 cm deep in a silty clay loam soil having a pH of 6.7. Plots were 9.1 m long by 3.0 m. The field was managed using no-till practices. […] Compound 2 and paraquat treatments, alone and in combination, also included a surfactant. Glyphosate, alone and with Compound 2, included ammonium sulfate in the treatment mixture. […] The effects on the weeds in the treated plots and untreated control plots were recorded 7, 14, 23, 30 and 57 days after application. Most of the weed species could not be evaluated at every timing. Corn response was only evaluated 57 days after application. […] Results are the means of the three replicates.
# [6] = test system: henbit deadnettle (LAMAM); assay: as above; type: in vivo, Lamium amplexicaule; details: g a.i./ha: Cpd 2 100, Glyphosate 1540, Paraquat 1150
# Experimental: as §3
# [7] = test system: common dandelion (TAROF); assay: as above; type: in vivo, Taraxacum officinale; details: g a.i./ha: Cpd 2 100, Glyphosate 1540, Paraquat 1150
# Experimental: as §3
# [8] = test system: Canada horseweed (ERICA); assay: as above; type: in vivo, Erigeron canadensis; details: g a.i./ha: Cpd 2 100, Glyphosate 1540, Paraquat 1150
# Experimental: as §3
# [9] = test system: bushy wallflower (ERYRE); assay: as above; type: in vivo, Erysimum repandum; details: g a.i./ha: Cpd 2 100, Glyphosate 1540, Paraquat 1150
# Experimental: as §3
# [10] = test system: Virginia pepperweed (LEPVI); assay: Test 3 field trial, emerged weeds before corn planting; type: in vivo, Lepidium virginicum; details: Cpd 2 100, glyphosate 1540, paraquat 1150 g a.i./ha, alone or combined
# Source text: (§4) Corn seeds (hybrid ‘Pioneer 33J56’) were planted in early spring season, 3.8 cm deep in a silt loam soil having 2.4% organic matter and a pH of 6. Plots were 6.1 m long by 2.7 m wide with rows spaced 91.4 cm apart. The field was managed using no-till practices. […] Compound 2 and paraquat treatments, alone and in combination, also included a surfactant. Glyphosate, alone and with Compound 2, included ammonium sulfate in the treatment mixture. […] The effects on the weeds in the treated plots and untreated control plots were recorded 30, 42, 46 and 68 days after application. Most of the weed species could not be evaluated at every timing. Corn response was not evaluated because the growth was highly variable depending on the efficacy of the weed control treatments. […] Results are the means of the three replicates.
# [11] = test system: common chickweed (STEME); assay: as above; type: in vivo, Stellaria media; details: Cpd 2 100, glyphosate 1540, paraquat 1150 g a.i./ha, alone or combined
# Source text: as §4
# [12] = test system: corn (ZEAMD); assay: Test 9 field trial, emerged weeds before corn planting; type: in vivo, Zea mays ssp. indentata; details: 57 DAA; g a.i./ha: Cpd 2 100, Glyphosate 1540, Paraquat 1150
# Experimental: as §3
# [13] = test system: smallflower buttercup (RANAB); assay: as above; type: in vivo, Ranunculus abortivus; details: g a.i./ha: Cpd 2 100, Glyphosate 1540, Paraquat 1150
# Experimental: as §3
# [14] = test system: red deadnettle (LAMPU); assay: as above; type: in vivo, Lamium purpureum; details: g a.i./ha: Cpd 2 100, Glyphosate 1540, Paraquat 1150
# Experimental: as §3
# [15] = test system: common lambsquarters (CHEAL); assay: as above; type: in vivo, Chenopodium album; details: 57 DAA; g a.i./ha: Cpd 2 100, Glyphosate 1540, Paraquat 1150
# Experimental: as §3
# [16] = test system: giant ragweed (AMBTR); assay: as above; type: in vivo, Ambrosia trifida; details: g a.i./ha: Cpd 2 100, Glyphosate 1540, Paraquat 1150
# Experimental: as §3
# [17] = test system: common lambsquarters (CHEAL); assay: Test 3 field trial, emerged weeds before corn planting; type: in vivo, Chenopodium album; details: 68 DAA; Cpd 2 100, glyphosate 1540, paraquat 1150 g a.i./ha, alone or combined
# Source text: as §4
# [18] = test system: prickly lettuce (LACSE); assay: Test 9 field trial, emerged weeds before corn planting; type: in vivo, Lactuca serriola; details: g a.i./ha: Cpd 2 100, Glyphosate 1540, Paraquat 1150
# Experimental: as §3
# [19] = test system: curly dock (RUMCR); assay: Test 3 field trial, emerged weeds before corn planting; type: in vivo, Rumex crispus; details: Cpd 2 100, glyphosate 1540, paraquat 1150 g a.i./ha, alone or combined
# Source text: as §4
# [20] = test system: shepherd's purse (CAPBP); assay: Test 9 field trial, emerged weeds before corn planting; type: in vivo, Capsella bursa-pastoris; details: g a.i./ha: Cpd 2 100, Glyphosate 1540, Paraquat 1150
# Experimental: as §3
# [21] = test system: red deadnettle (LAMPU); assay: Test 3 field trial, emerged weeds before corn planting; type: in vivo, Lamium purpureum; details: Cpd 2 100, glyphosate 1540, paraquat 1150 g a.i./ha, alone or combined
# Source text: as §4
# [22] = test system: giant foxtail (SETFA); assay: as above; type: in vivo, Setaria faberi; details: 68 DAA; Cpd 2 100, glyphosate 1540, paraquat 1150 g a.i./ha, alone or combined
# Source text: as §4
structure (smiles),measurement,setting,value
"CCOP(=O)(O)C(N)=O [Fosamine-ammonium, fosamine-ammonium, reference compound]",QUESS Obs,[1],33
same,MXDSP Obs,[2],47
O=C1OC(=O)c2cccc3cccc1c23 [Naphthalic anhydride],TRZAW Obs,[3],0
same,ZEAMD Obs,[4],0
C[n+]1ccc(-c2cc[n+](C)cc2)cc1 [Paraquat],STEME Obs,[5]; 7 DAA,99%
same,STEME Obs,[5]; 14 DAA,99%
same,STEME Obs,[5]; 23 DAA,100%
same,STEME Obs,[5]; 30 DAA,100%
same,STEME Obs,[5]; 57 DAA,98%
same,LAMAM Obs,[6]; 7 DAA,93%
same,LAMAM Obs,[6]; 14 DAA,84%
same,LAMAM Obs,[6]; 23 DAA,85%
same,LAMAM Obs,[6]; 30 DAA,73%
same,LAMAM Obs,[6]; 57 DAA,81%
same,TAROF Obs,[7]; 7 DAA,79%
same,TAROF Obs,[7]; 14 DAA,69%
same,TAROF Obs,[7]; 23 DAA,61%
same,TAROF Obs,[7]; 30 DAA,33%
same,TAROF Obs,[7]; 57 DAA,0%
same,ERICA Obs,[8]; 7 DAA,95%
same,ERICA Obs,[8]; 14 DAA,96%
same,ERICA Obs,[8]; 23 DAA,99%
same,ERICA Obs,[8]; 30 DAA,100%
same,ERICA Obs,[8]; 57 DAA,81%
same,ERYRE Obs,[9]; 7 DAA,98%
same,ERYRE Obs,[9]; 14 DAA,94%
same,ERYRE Obs,[9]; 23 DAA,98%
same,ERYRE Obs,[9]; 30 DAA,100%
same,ERYRE Obs,[9]; 57 DAA,80%
same,LEPVI Obs,[10]; 30 DAA,100%
same,LEPVI Obs,[10]; 42 DAA,96%
same,LEPVI Obs,[10]; 46 DAA,100%
same,STEME Obs,[11]; 30 DAA,96%
same,STEME Obs,[11]; 42 DAA,97%
same,STEME Obs,[11]; 46 DAA,88%
same,ZEAMD Obs,[12],0%
same,RANAB Obs,[13]; 7 DAA,98%
same,RANAB Obs,[13]; 14 DAA,100%
same,RANAB Obs,[13]; 23 DAA,100%
same,RANAB Obs,[13]; 30 DAA,100%
same,LAMPU Obs,[14]; 7 DAA,79%
same,LAMPU Obs,[14]; 14 DAA,80%
same,LAMPU Obs,[14]; 23 DAA,81%
same,LAMPU Obs,[14]; 30 DAA,70%
same,CHEAL Obs,[15],0%
same,AMBTR Obs,[16]; 7 DAA,100%
same,AMBTR Obs,[16]; 14 DAA,100%
same,AMBTR Obs,[16]; 57 DAA,70%
same,CHEAL Obs,[17],0%
same,LACSE Obs,[18]; 7 DAA,97%
same,LACSE Obs,[18]; 14 DAA,95%
same,LACSE Obs,[18]; 23 DAA,100%
same,LACSE Obs,[18]; 30 DAA,100%
same,LACSE Obs,[18]; 57 DAA,100%
same,RUMCR Obs,[19]; 30 DAA,58%
same,RUMCR Obs,[19]; 42 DAA,58%
same,RUMCR Obs,[19]; 46 DAA,13%
same,RUMCR Obs,[19]; 68 DAA,15%
same,CAPBP Obs,[20]; 7 DAA,89%
same,CAPBP Obs,[20]; 14 DAA,85%
same,CAPBP Obs,[20]; 23 DAA,77%
same,CAPBP Obs,[20]; 30 DAA,72%
same,CAPBP Obs,[20]; 57 DAA,93%
same,LAMPU Obs,[21]; 30 DAA,100%
same,LAMPU Obs,[21]; 42 DAA,98%
same,LAMPU Obs,[21]; 46 DAA,100%
same,SETFA Obs,[22],0%
